Values of other authors, collected in patent US12358983B2, “Combination of anti CD19 antibody with a BCL-2 inhibitor and uses thereof” (Incyte Corporation, priority 2016, dated 2025).

How the values were obtained:
[1] = test system: primary cells from patients with B-cell malignancies; settings: in vitro studies; cited from earlier work
[2] = test system: lymphoma and other blood cancers; settings: in vivo; cited from earlier work
[3] = mouse, in vivo; cited from earlier work

CN(C)CC[C@H](CSc1ccccc1)Nc1ccc(S(=O)(=O)NC(=O)c2ccc(N3CCN(Cc4ccccc4-c4ccc(Cl)cc4)CC3)cc2)cc1[N+](=O)[O-] [ABT-737]
Sensitivity of primary cells (in words) [1]: sensitive | Efficacy in patient xenografts (in words) [2]: showed efficacy | Effect in animal models (in words) [3]: improves survival, causes tumor regression and cures a high percentage of mice
